Measurements reported in ChEMBL document CHEMBL1128316, “Alkane-6,8-diol: inhibitor of tumor promotion in two-stage carcinogenesis in mouse skin” (1995).

Assays:
Mus musculus = experiment: Inhibition of TPA-induced inflammatory ear edema in mice(compound was applied 30 min before TPA […],Ear thickness was determined 6 hr after TPA treatment); type: functional
[1] = Inhibitory ratio at 1.0 mg/ear; type: functional

| Compound | ID50 (Mus musculus) [mg ear-1] | Ratio [1] |
| --- | --- | --- |
| COc1ccc2c(c1)c(CC(=O)O)c(C)n2C(=O)c1ccc(Cl)cc1 [INDOMETHACIN] | 0.3 | <96 |
| C[C@]12CCC(=O)C=C1CCC1[C@@H]2[C@@H](O)C[C@@]2(C)[C@H]1CC[C@]2(O)C(=O)CO (single isomer, unassigned) [HYDROCORTISONE] | 0.03 | <99 |
| O=c1c(O)c(-c2ccc(O)c(O)c2)oc2cc(O)cc(O)c12 [QUERCETIN] | 1.6 | <40 |
| CCCCCCCC(O)CC(O)CCCCC (stereo unspecified) | – | 23 |
| CCCCCCCCCCCCCCCCCCCCCC(O)CC(O)CCCCC (stereo unspecified) | 0.4 | <85 |
| CCCCCCCCCCCCCCCCCCCC(O)CC(O)CCCCC (stereo unspecified) | 0.5 | <82 |
